Experimental data: patent publication US12396961B2, “Compounds and compositions for intracellular delivery of agents” (ModernaTX, Inc., priority 2015, dated 2025)

Test: Particle size and polydispersity index (Zetasizer Nano ZS)
Assay type: physicochemical
Excerpt: Nanoparticle compositions may be characterized by a variety of methods. For example, microscopy (e.g., transmission electron microscopy or scanning electron microscopy) may be used to examine the morphology and size distribution of a nanoparticle composition. Dynamic light scattering or potentiometry (e.g., potentiometric titrations) may be used to measure zeta potentials. Dynamic light scattering may also be utilized to determine particle sizes. Instruments such as the Zetasizer Nano ZS (Malvern Instruments Ltd, Malvern, Worcestershire, UK) may also be used to measure multiple characteristics of a nanoparticle composition, such as particle size, polydispersity index, and zeta potential.
A Zetasizer Nano ZS (Malvern Instruments Ltd, Malvern, Worcestershire, UK) can be used to determine the particle size, the polydispersity index (PDI) and the zeta potential of the nanoparticle compositions in 1×PBS in determining particle size and 15 mM PBS in determining zeta potential.

[1] = Table 1, DOPE 40:20:38.5:1.5, Luc mRNA
[2] = Table 1, marked *: lipid:DSPC:Chol:PEG-DMG 50:10:38.5:1.5

PDI (Table 20-1)	PDI [1]	SMILES	further results
0.080	–	CCCCC/C=C\CCCCCN(CCO)CCN(CCCCCCCCCCCC)CCCCCCCCCCCC [Compound 20-23, (Z)-2-((2-(Didodecylamino)ethyl)(dodec-6-en-1-yl)amino)ethan-1-ol]	–
0.220	–	CCCCCCCCCN(CCCCCCCCC)CCN(CCO)CCCCCC(=O)OCCCCC [Compound 20-6, Pentyl 6-((2-(dinonylamino)ethyl)(2-hydroxyethyl)amino)hexanoate]	–
0.130	–	CCCCCCCCCCCCN(CCCCCCCCCCCC)CCN(CCO)CCCCCCCC(=O)OC(CCCCCCCC)CCCCCCCC [Compound 20-9, Heptadecan-9-yl 8-((2-(didodecylamino)ethyl)(2-hydroxyethyl)amino)octanoate]	–
0.057	–	CCCCC/C=C\C/C=C\CCCCCCCCN(CCCCCCCC/C=C\C/C=C\CCCCC)CCN(CCO)CCCCCCCCCCCC [Compound 20-13, 2-((2-(Di((9Z,12Z)-octadeca-9,12-dien-1-yl)amino)ethyl)(dodecyl)amino)ethan-1-ol]	–
0.150	–	CCCCCCCCCCCCN(CCO)CCN(CCCCCCCCC)CCCCCCCCC [Compound 20-18, 2-((2-(Dinonylamino)ethyl)(dodecyl)amino)ethan-1-ol]	–
0.110	–	CCCCCCCCCCCCN(CCCCCCCCCCCC)CCN(CCO)CCCCCC(=O)OCCCCC [Compound 20-3, Pentyl 6-((2-(didodecylamino)ethyl)(2-hydroxyethyl)amino)hexanoate]	–
0.210	–	CCCCCCCOC(=O)CCCCCN(CCO)CCN(CCCCCC(=O)OCCCCCCC)CCCCCC(=O)OCCCCCCC [Compound 20-5, Diheptyl 6,6′-((2-((6-(heptyloxy)-6-oxohexyl)(2 hydroxyethyl)amino)ethyl)azanediyl)dihexanoate]	–
0.170	–	CCCCCCCCCCCCN(CCO)CCN(CCCCCCCCCCCC)CCCCCC(=O)OCCCCCCC [Compound 20-7, Heptyl 6-(dodecyl(2-(dodecyl(2-hydroxyethyl)amino)ethyl)amino)hexanoate]	–
0.038	–	CCCCCCCCCCCCCCN(CCO)CCN(CCCCCCCCCCCC)CCCCCCCCCCCC [Compound 20-24, 2-((2-(Didodecylamino)ethyl)(tetradecyl)amino)ethan-1-ol]	–
0.130	–	CCCCCCCCCCCCN(CCO)CCN(CCCCCCCCCCCC)CCCCCC(=O)OCCCCC [Compound 20-2, Pentyl 6-(dodecyl(2-(dodecyl(2-hydroxyethyl)amino)ethyl)amino)hexanoate]	–
0.130	–	CCCCCCCCCCCCN(CCO)CCN(CCCCCCCC(=O)OCCCCCCCCC)CCCCCCCC(=O)OCCCCCCCCC [Compound 20-10, Dinonyl 8,8′-((2-(dodecyl(2-hydroxyethyl)amino)ethyl)azanediyl)dioctanoate]	–
0.092	–	CCCCCCCCCCCCN(CCCCCCCCCCCC)CCN(CCO)CCCCCCCCC [Compound 20-17, 2-((2-(didodecylamino)ethyl)(nonyl)amino)ethan-1-ol]	–
0.160	–	CCCCCCCCCCCCN(CCO)CCN(CCCCCC(=O)OCCCCC)CCCCCC(=O)OCCCCC [Compound 20-4, Dipentyl 6,6′-((2-(dodecyl(2-hydroxyethyl)amino)ethyl)azanediyl)dihexanoate]	–

Further lines, the compound ahead of its results:

SMILES	PDI (Table 20-1)	PDI [1]	further results
CCCCCCCC/C=C\CCCCCCCCN(CCCCCCCC/C=C\CCCCCCCC)CCN1CCN(CCN(CCCCCCCCCCCC)CCN(CCCCCCCCCCCC)CCCCCCCCCCCC)CC1 [Compound 28, N^1-(2-(4-(2-(Di((Z)-octadec-9-en-1-yl)amino)ethyl)piperazin-1-yl)ethyl)-N^1,N^2,N^2-tridodecylethane-1,2-diamine]	–	0.099	–
CCCCCCCCCCCCN(CCCCCCCCCCCC)CCN1CCN(CCN(CCCCCC)CCN(CCCCCC)CCCCCC)CC1 [Compound 17, N^1-(2-(4-(2-(Didodecylamino)ethyl)piperazin-1-yl)ethyl)-N^1,N^2,N^2-trihexylethane-1,2-diamine]	–	0.180	–
CCCCCCCC/C=C\CCCCCCCCN(CCCCCCCC/C=C\CCCCCCCC)CCN(CCCCCCCC/C=C\CCCCCCCC)CCN1CCNCC1 [Compound 40, N^1,N^1,N^2-Tri((Z)-octadec-9-en-1-yl)-N^2-(2-(piperazin-1-yl)ethyl)ethane-1,2-diamine]	–	–	PDI [2]: 0.210
CCCCCCCCCCCCCCN(CCCCCCCCCCCCCC)CCN(CCCCCCCCCCCCCC)CCN1CCN(CCN(CCCCCCCCCCCC)CCCCCC(=O)OCCCCC)CC1 [Compound 13, Pentyl 6-((2-(4-(2-((2-(ditetradecylamino)ethyl)(tetradecyl)amino)ethyl)piperazin-1-yl)ethyl)(dodecyl)amino)hexanoate]	–	0.080	–
CCCCC/C=C\C/C=C\CCCCCCCCN(CCCCCCCC/C=C\C/C=C\CCCCC)CCN(CCCCCCCC/C=C\C/C=C\CCCCC)CCN1CCNCC1 [Compound 41, N^1,N^1,N^2-Tri((9Z,12Z)-octadeca-9,12-dien-1-yl)-N^2-(2-(piperazin-1-yl)ethyl)ethane-1,2-diamine]	–	–	Size (nm) [2]: 69.0 nm
CCCCCCCCCCCCN(CCCCCCCCCCCC)CCN(CCCCCCCCCCCC)CCN1CCN(C(=O)CN(CCCCCCCCCCCC)CCCCCCCCCCCC)CC1 [Compound 3, 2-(Didodecylamino)-1-(4-(2-((2-(didodecylamino)ethyl)(dodecyl)amino)ethyl)piperazin-1-yl)ethan-1-one]	–	0.044	–
CCCCCCCCCCCCCCN(CCCCCCCCCCCCCC)CCN(CCCCCCCCCCCCCC)CCN1CCN(CCN(CCCCCCCCCCCCCC)CCCCCCCCCCCCCC)CC1 [Compound 32, N^1-(2-(4-(2-(Ditetradecylamino)ethyl)piperazin-1-yl)ethyl)-N^1,N^2,N^2 tritetradecylethane-1,2-diamine]	–	0.160	–
CCCCCCCCCCCCCCN(CCCCCCCCCCCCCC)CCN(CCCCCCCCCCCCCC)CCN1CCN(CCN(CCCCCCCCC)CCCCCCCCC)CC1 [Compound 30, N^1-(2-(4-(2-(Dinonylamino)ethyl)piperazin-1-yl)ethyl)-N^1,N^2,N^2-tritetradecylethane-1,2-diamine]	–	0.110	Size (nm) (Table 1, lipid:DOPE:Chol:PEG-DMG 40:20:38.5:1.5, Luc mRNA, MC3 standard formulation): 95.0 nm
CCCCC/C=C\C/C=C\CCCCCCCCN(CCCCCCCC/C=C\C/C=C\CCCCC)CCN1CCN(CCN(CCCCCCCCCCCC)CCN(CCCCCCCCCCCC)CCCCCCCCCCCC)CC1 [Compound 29, N^1-(2-(4-(2-(Di((9Z,12Z)-octadeca-9,12-dien-1-yl)amino)ethyl)piperazin-1-yl)ethyl)-N^1,N^2,N^2-tridodecylethane-1,2-diamine]	–	0.060	–
CCCCCCCCCCCCN(CCCCCCCCCCCC)CCN(CCCCCCCCCCCC)CCN1CCN(CCN(CCCCCCCCCCCC)CCCCCCCCCCCC(=O)OC)CC1 [Compound 15, Methyl 12-((2-(4-(2-((2-(didodecylamino)ethyl)(dodecyl)amino)ethyl)piperazin-1-yl)ethyl)(dodecyl)amino)dodecanoate]	–	–	PDI (formulated with hEPO mRNA): 0.120
CCCCCCCCCCCCN(CCCCCCCCCCCC)CCN1CCN(CCN(CCCCCCCCC)CCN(CCCCCCCCC)CCCCCCCCC)CC1 [Compound 19, N^1-(2-(4-(2-(Didodecylamino)ethyl)piperazin-1-yl)ethyl)-N^1,N^2,N^2-trinonylethane-1,2-diamine]	–	0.100	–
CCCCCCCCCN(CCCCCCCCC)CCN(CCCCCCCCC)CCN1CCN(CCN(CCCCCCCCC)CCCCCCCCC)CC1 [Compound 18, N^1-(2-(4-(2-(Dinonylamino)ethyl)piperazin-1-yl)ethyl)-N^1,N^2,N^2-trinonylethane-1,2-diamine]	–	0.120	–
CCCCCCCCCCCCN(CCCCCCCCCCCC)CCN(CCCCCCCCCCCC)CCN1CCN(CCN(CCCCCCCC)CCCCCCCC)CC1 [Compound 22, N^1-(2-(4-(2-(Dioctylamino)ethyl)piperazin-1-yl)ethyl)-N^1,N^2,N^2-tridodecylethane-1,2-diamine]	–	–	PDI (formulated with hEPO mRNA): 0.130
CCCCCCCCCCCCN(CCCCCCCCCCCC)CCN(CCCCCCCCCCCC)CC(=O)O [Compound 20-1, N-(2-(Didodecylamino)ethyl)-N-dodecylglycine]	–	–	PDI (Table 20-1, row marked *: formulated with DOPE): 0.078
CCCCC/C=C\C/C=C\CCCCCCCCN(CCCCCCCC/C=C\C/C=C\CCCCC)CCN(CCCCCCCC/C=C\C/C=C\CCCCC)CCN1CCN(CCN(CCCCCCCCCCCC)CCCCCCCCCCCC)CC1 [Compound 34, N^1-(2-(4-(2-(Didodecylamino)ethyl)piperazin-1-yl)ethyl)-N^1,N^2,N^2-tri((9Z,12Z)-octadeca-9,12-dien-1-yl)ethane-1,2-diamine]	–	–	PDI [2]: 0.077
CCCCCCCCCCCCCCN(CCCCCCCCCCCCCC)CCN(CCCCCCCCCCCCCC)CCN1CCN(CCN(CCCCCCCCCCCC)CCCCCCCCCCCC)CC1 [Compound 31, N^1-(2-(4-(2-(Didodecylamino)ethyl)piperazin-1-yl)ethyl)-N^1,N^2,N^2 tritetradecylethane-1,2-diamine]	–	0.130	–
CCCCCCCCCN(CCCCCCCCC)CCN(CCCCCCCCC)CCN1CCNCC1 [Compound 36, N^1,N^1,N^2-Trinonyl-N^2-(2-(piperazin-1-yl)ethyl)ethane-1,2-diamine]	–	–	PDI [2]: 0.110
